# Bridge positions count the residues as written; N and C are the ends. Square brackets hold non-standard residues; d marks the D form. Peptide text beside a SMILES is read from it. * marks the point of attachment. hPhe(3,5-F2-4-CF3) = N[C@@H](CCc1cc(F)c(C(F)(F)F)c(F)c1)C(=O)O; hPhe(3-Cl-4-CF3) = N[C@@H](CCc1ccc(C(F)(F)F)c(Cl)c1)C(=O)O; hPhe(3-F,4-CF3) = N[C@@H](CCc1ccc(C(F)(F)F)c(F)c1)C(=O)O; NEtPhe(4-CF3) = CCN[C@@H](Cc1ccc(C(F)(F)F)cc1)C(=O)O; NMePhe(4-CF3) = CN[C@@H](Cc1ccc(C(F)(F)F)cc1)C(=O)O; NEtPhe(4-Me) = CCN[C@@H](Cc1ccc(C)cc1)C(=O)O; NMeAbu(4,4,4-F3) = CN[C@@H](CC(F)(F)F)C(=O)O; NMeAla(cPent) = CN[C@@H](CC1CCCC1)C(=O)O; NMeGly(cPent) = CN[C@H](C(=O)O)C1CCCC1; NMeGly(cBu) = CN[C@H](C(=O)O)C1CCC1; NMeCha = CN[C@@H](CC1CCCCC1)C(=O)O; Hyp = O=C(O)[C@@H]1C[C@@H](O)CN1; NEtLeu = CCN[C@@H](CC(C)C)C(=O)O; NMeChg = CN[C@H](C(=O)O)C1CCCCC1; NMeI = CC[C@H](C)[C@H](NC)C(=O)O; NMeD = CN[C@@H](CC(=O)O)C(=O)O; NMeL = CN[C@@H](CC(C)C)C(=O)O; Oxazolidin(3-yl) = C1CN(*)CO1; NMeV = CN[C@H](C(=O)O)C(C)C; Azetidin(1-yl) = C1CN(*)C1; Morpholide = C1CN(*)CCO1; NMeA = CN[C@@H](C)C(=O)O; Piperidide = C1CCN(*)CC1; Pyrrolidide = C1CCN(*)C1; Ac5c = NC1(C(=O)O)CCCC1; Aze = O=C(O)[C@@H]1CCN1; NEtG = CCNCC(=O)O; Sar = CNCC(=O)O
# Columns and labels:
# [1] = tested on: Human pancreatic cancer cell line AsPC-1 (G12D mutation Kras); assay: AsPC-1 cell growth inhibition (AsPC-1 CGI); assay type: cell-based; details: read-out: AsPC-1 cell growth inhibition, 50% growth inhibitory concentration (IC50 value); 96 hours, CellTiter-Glo, values classified in ranges
# [2] = target: protein-protein interaction between Kras and SOS1 (biotin-tagged human Kras loaded with GDP, His-tagged human SOS1) (Homo sapiens (Human), UniProt P01116, G12D); assay: Protein-protein interaction inhibition between Kras and SOS1 (KrasG12D-SOS PPI) using AlphaScreen; assay type: biochemical; details: AlphaScreen; biotin-tagged human Kras loaded with GDP, His-tagged human SOS1; read-out: KRAS G12D-SOS PPI IC50;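 also: kras produced in E. coli, Ni-coupled donor beads and streptavidin acceptor beads, excitation 680 nm with emission detected at 520–620 nm via singlet oxygen transfer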
SMILES,IC50 [1],IC50 [2]
CCO[C@@H]1C[C@H]2C(=O)NC3(CCCC3)C(=O)N(C)[C@@H](C3CCCC3)C(=O)N(C)[C@H](C(=O)N3CCC3)CC(=O)N(C)[C@@H](CC(C)C)C(=O)N[C@@H]([C@@H](C)CC)C(=O)N(C)[C@@H](C)C(=O)N3CC[C@H]3C(=O)N(C)[C@@H](CC3CCCCC3)C(=O)N(C)CC(=O)N[C@@H](CCc3ccc(C(F)(F)F)c(Cl)c3)C(=O)N2C1 [Compound 1158] ([NMeL]I[NMeA][Aze][NMeCha][Sar][hPhe(3-Cl-4-CF3)][Hyp](Et)[Ac5c][NMeGly(cPent)][NMeD]-{Azetidin(1-yl)}; lactam N-11),≤ 20 nM,0.52 nM
"CCO[C@@H]1C[C@H]2C(=O)NC3(CCCC3)C(=O)N(C)[C@@H](C3CCCC3)C(=O)N(C)[C@H](C(=O)N3CCCC3)CC(=O)N(C)[C@@H](CC(C)C)C(=O)N[C@@H]([C@@H](C)CC)C(=O)N(C)CC(=O)N(C)CC(=O)N(C)[C@@H](CC3CCCCC3)C(=O)N(C)CC(=O)N[C@@H](CCc3cc(F)c(C(F)(F)F)c(F)c3)C(=O)N2C1 [Compound 1162] ([NMeL]I[Sar][Sar][NMeCha][Sar][hPhe(3,5-F2-4-CF3)][Hyp](Et)[Ac5c][NMeGly(cPent)][NMeD]-Pyrrolidide; lactam N-11)",≤ 20 nM,0.57 nM
"CC[C@H](C)[C@@H]1NC(=O)[C@H](CC(C)C)N(C)C(=O)C[C@@H](C(=O)N(C)C)N(C)C(=O)[C@H](C2CCCC2)N(C)C(=O)C2(CCCC2)NC(=O)[C@@H]2CCCN2C(=O)[C@H](CCc2cc(F)c(C(F)(F)F)c(F)c2)NC(=O)CN(C)C(=O)[C@H](CC2CCCCC2)N(C)C(=O)[C@@H]2CCN2C(=O)[C@H](C)N(C)C1=O [Compound 1170] ([NMeL]I[NMeA][Aze][NMeCha][Sar][hPhe(3,5-F2-4-CF3)]P[Ac5c][NMeGly(cPent)][NMeD]-NMe2; lactam N-11)",≤ 20 nM,0.54 nM
CC[C@H](C)[C@@H]1NC(=O)[C@H](CC2CCCC2)N(C)C(=O)C[C@@H](C(=O)N2CCOCC2)N(C)C(=O)[C@H](C2CCCC2)N(C)C(=O)C2(CCCC2)NC(=O)[C@@H]2CCCN2C(=O)[C@H](CCc2ccc(C(F)(F)F)c(Cl)c2)NC(=O)CN(C)C(=O)[C@H](C2CCCC2)N(C)C(=O)[C@@H]2CCN2C(=O)[C@H](C)N(C)C1=O [Compound 1173] ([NMeAla(cPent)]I[NMeA][Aze][NMeGly(cPent)][Sar][hPhe(3-Cl-4-CF3)]P[Ac5c][NMeGly(cPent)][NMeD]-Morpholide; lactam N-11),≤ 20 nM,0.74 nM
CC[C@H](C)[C@@H]1NC(=O)[C@H](CC(C)C)N(C)C(=O)C[C@@H](C(=O)N2CCCCC2)N(C)C(=O)[C@H](C(C)C)N(C)C(=O)[C@@H](C)NC(=O)[C@@H]2CCCN2C(=O)[C@H](CCc2ccc(C(F)(F)F)c(Cl)c2)NC(=O)CN(C)C(=O)[C@H](CC2CCCCC2)N(C)C(=O)[C@@H]2CCN2C(=O)[C@H](C)N(C)C1=O [Compound 1174] ([NMeL]I[NMeA][Aze][NMeCha][Sar][hPhe(3-Cl-4-CF3)]P[dA][NMeV][NMeD]-Piperidide; lactam N-11),> 500 nM,62 nM
"CC[C@H](C)[C@@H]1NC(=O)[C@H](CC(C)C)N(C)C(=O)C[C@@H](C(=O)N2CCCC2)N(C)C(=O)[C@H]([C@@H](C)CC)N(C)C(=O)C2(CCCC2)NC(=O)[C@@H]2CCCN2C(=O)[C@H](CCc2cc(F)c(C(F)(F)F)c(F)c2)NC(=O)CN(C)C(=O)[C@H](Cc2ccc(C(F)(F)F)cc2)N(CC)C(=O)[C@@H]2CCN2C(=O)[C@H](C)N(C)C1=O [Compound 1175] ([NMeL]I[NMeA][Aze][NEtPhe(4-CF3)][Sar][hPhe(3,5-F2-4-CF3)]P[Ac5c][NMeI][NMeD]-Pyrrolidide; lactam N-11)",≤ 20 nM,0.79 nM
CC[C@H](C)[C@@H]1NC(=O)[C@H](CC(C)C)N(C)C(=O)C[C@@H](C(=O)N2CCOC2)NC(=O)[C@H](C(C)C)N(C)C(=O)C2(CCCC2)NC(=O)[C@@H]2CCCN2C(=O)[C@H](CCc2ccc(C(F)(F)F)c(Cl)c2)NC(=O)CN(C)C(=O)[C@H](CC2CCCCC2)N(C)C(=O)[C@@H]2CCN2C(=O)[C@H](C)N(C)C1=O [Compound 1188] ([NMeL]I[NMeA][Aze][NMeCha][Sar][hPhe(3-Cl-4-CF3)]P[Ac5c][NMeV]D-{Oxazolidin(3-yl)}; lactam N-11),> 500 nM,33 nM
CC[C@H](C)[C@@H]1NC(=O)[C@H](CC(C)C)N(CC)C(=O)C[C@@H](C(=O)N2CCCC2)N(C)C(=O)[C@H]([C@@H](C)CC)N(C)C(=O)C2(CCCC2)NC(=O)[C@@H]2CCCN2C(=O)[C@H](CCc2ccc(C(F)(F)F)c(Cl)c2)NC(=O)CN(C)C(=O)[C@H](Cc2ccc(C(F)(F)F)cc2)N(C)C(=O)[C@@H]2CCN2C(=O)[C@H](C)N(C)C1=O [Compound 1190] ([NEtLeu]I[NMeA][Aze][NMePhe(4-CF3)][Sar][hPhe(3-Cl-4-CF3)]P[Ac5c][NMeI][NMeD]-Pyrrolidide; lactam N-11),≤ 20 nM,0.83 nM
CC[C@H](C)[C@@H]1NC(=O)[C@H](CC2CCCC2)N(C)C(=O)C[C@@H](C(=O)N2CCC2)N(C)C(=O)[C@H](C2CCCC2)N(C)C(=O)C2(CCCC2)NC(=O)[C@@H]2CCCN2C(=O)[C@H](CCc2ccc(C(F)(F)F)c(Cl)c2)NC(=O)CN(C)C(=O)[C@H](CC2CCCCC2)N(C)C(=O)[C@@H]2CCN2C(=O)[C@H](C)N(C)C1=O [Compound 1199] ([NMeAla(cPent)]I[NMeA][Aze][NMeCha][Sar][hPhe(3-Cl-4-CF3)]P[Ac5c][NMeGly(cPent)][NMeD]-{Azetidin(1-yl)}; lactam N-11),≤ 20 nM,0.7 nM
CC[C@H](C)[C@@H]1NC(=O)[C@H](CC(C)C)N(C)C(=O)C[C@@H](C(=O)N2CCOCC2)NC(=O)[C@H](C(C)C)N(C)C(=O)C2(CCCC2)NC(=O)[C@@H]2CCCN2C(=O)[C@H](CCc2ccc(C(F)(F)F)c(Cl)c2)NC(=O)CN(C)C(=O)[C@H](CC2CCCCC2)N(C)C(=O)[C@@H]2CCN2C(=O)[C@H](C)N(C)C1=O [Compound 1200] ([NMeL]I[NMeA][Aze][NMeCha][Sar][hPhe(3-Cl-4-CF3)]P[Ac5c][NMeV]D-Morpholide; lactam N-11),> 500 nM,45 nM
CCO[C@@H]1C[C@H]2C(=O)NC3(CCCC3)C(=O)N(C)[C@@H](C3CCCCC3)C(=O)N(C)[C@H](C(=O)N3CCCC3)CC(=O)N(C)[C@@H](C3CCC3)C(=O)N[C@@H]([C@@H](C)CC)C(=O)N(C)CC(=O)N(C)CC(=O)N(C)[C@@H](CC3CCCCC3)C(=O)N(C)CC(=O)N[C@@H](CCc3ccc(C(F)(F)F)c(Cl)c3)C(=O)N2C1 [Compound 1204] ([NMeGly(cBu)]I[Sar][Sar][NMeCha][Sar][hPhe(3-Cl-4-CF3)][Hyp](Et)[Ac5c][NMeChg][NMeD]-Pyrrolidide; lactam N-11),≤ 20 nM,0.44 nM
"CC[C@H](C)[C@@H]1NC(=O)[C@H](CC(C)C)N(C)C(=O)C[C@@H](C(=O)N(C)C)N(C)C(=O)[C@H](C2CCCC2)N(C)C(=O)C2(CCCC2)NC(=O)[C@@H]2CCCN2C(=O)[C@H](CCc2ccc(C(F)(F)F)c(F)c2)NC(=O)CN(CC)C(=O)[C@H](CC2CCCCC2)N(C)C(=O)[C@@H]2CCN2C(=O)[C@H](C)N(C)C1=O [Compound 1205] ([NMeL]I[NMeA][Aze][NMeCha][NEtG][hPhe(3-F,4-CF3)]P[Ac5c][NMeGly(cPent)][NMeD]-NMe2; lactam N-11)",≤ 20 nM,2.8 nM
"CCO[C@@H]1C[C@H]2C(=O)NC3(CCCC3)C(=O)N(C)[C@@H](C3CCCCC3)C(=O)N(C)[C@H](C(=O)N3CCOCC3)CC(=O)N(C)[C@@H](CC(F)(F)F)C(=O)N[C@@H]([C@@H](C)CC)C(=O)N(C)CC(=O)N(C)CC(=O)N(C)[C@@H](Cc3ccc(C(F)(F)F)cc3)C(=O)N(C)CC(=O)N[C@@H](CCc3ccc(C(F)(F)F)c(Cl)c3)C(=O)N2C1 [Compound 1206] ([NMeAbu(4,4,4-F3)]I[Sar][Sar][NMePhe(4-CF3)][Sar][hPhe(3-Cl-4-CF3)][Hyp](Et)[Ac5c][NMeChg][NMeD]-Morpholide; lactam N-11)",≤ 20 nM,0.57 nM
CC[C@H](C)[C@@H]1NC(=O)[C@H](CC(C)C)N(CC)C(=O)C[C@@H](C(=O)N2CCOCC2)N(C)C(=O)[C@H](C2CCCC2)N(C)C(=O)C2(CCCC2)NC(=O)[C@@H]2CCCN2C(=O)[C@H](CCc2ccc(C(F)(F)F)c(Cl)c2)NC(=O)CN(C)C(=O)[C@H](C2CCCC2)N(C)C(=O)[C@@H]2CCN2C(=O)[C@H](C)N(C)C1=O [Compound 1208] ([NEtLeu]I[NMeA][Aze][NMeGly(cPent)][Sar][hPhe(3-Cl-4-CF3)]P[Ac5c][NMeGly(cPent)][NMeD]-Morpholide; lactam N-11),≤ 20 nM,0.69 nM
"CC[C@H](C)[C@@H]1NC(=O)[C@H](CC(C)C)N(C)C(=O)C[C@@H](C(=O)N2CCOCC2)N(C)C(=O)[C@H]([C@@H](C)CC)N(C)C(=O)C2(CCCC2)NC(=O)[C@@H]2CCCN2C(=O)[C@H](CCc2cc(F)c(C(F)(F)F)c(F)c2)NC(=O)CN(C)C(=O)[C@H](Cc2ccc(C)cc2)N(CC)C(=O)[C@@H]2CCN2C(=O)[C@H](C)N(C)C1=O [Compound 1209] ([NMeL]I[NMeA][Aze][NEtPhe(4-Me)][Sar][hPhe(3,5-F2-4-CF3)]P[Ac5c][NMeI][NMeD]-Morpholide; lactam N-11)",≤ 20 nM,0.85 nM
"CCO[C@@H]1C[C@H]2C(=O)NC3(CCCC3)C(=O)N(C)[C@@H]([C@@H](C)CC)C(=O)N(C)[C@H](C(=O)N3CCCC3)CC(=O)N(C)[C@@H](CC(C)C)C(=O)N[C@@H]([C@@H](C)CC)C(=O)N(C)[C@@H](C)C(=O)N3CC[C@H]3C(=O)N(C)[C@@H](Cc3ccc(C(F)(F)F)cc3)C(=O)N(C)CC(=O)N[C@@H](CCc3cc(F)c(C(F)(F)F)c(F)c3)C(=O)N2C1 [Compound 1210] ([NMeL]I[NMeA][Aze][NMePhe(4-CF3)][Sar][hPhe(3,5-F2-4-CF3)][Hyp](Et)[Ac5c][NMeI][NMeD]-Pyrrolidide; lactam N-11)",≤ 20 nM,0.74 nM

# Source: patent publication US20240148821A1, “PHARMACEUTICAL USE OF CYCLIC PEPTIDE COMPOUND” (CHUGAI SEIYAKU KABUSHIKI KAISHA, priority 2021, published 2024)
